Key:
Assay type in all cases: cell-based, Mycobacterium smegmatis
[1] = tested on: M. smegmatis ΔrrnB 1491C (16S rRNA position 1491 C, eukaryotic mitochondrial ribosome); test: MIC, recombinant M. smegmatis with mutant ribosomes 1491C; conditions: M. smegmatis ΔrrnB 1491C mutant ribosomes; 72 h at 37° C.
Description: (§1) The strain used for introduction/selection of mutational alterations was a genetically modified derivative of Mycobacterium smegmatis carrying a single functional chromosomal rRNA operon (Sander et al. Mol. Microbiol. 1996, 22: 841-848). This strain, termed M. smegmatis rrn^−, allowed for the selection of mutational rRNA gene alterations using a plasmid carrying the rRNA gene with the respective mutational alteration.)
(§2) The rRNA gene carried on the plasmid encodes either the complete rRNA operon (Prammananan et al. Antimicrob. Agents Chemother. 1999, 43: 447-453) or a non-functional rRNA gene fragment of approximately 1.0 kb (Pfister et al. Antimicrob. Agents Chemother. 2003, 47: 1496-1502). PCR-mutagenesis in vitro was used to generate the mutagenized rRNA gene fragment. In the case of a partial rRNA gene fragment the mutagenized rRNA gene fragment was cloned into vectors pMV261 or pMV361 (Sander et al. Mol. Microbiol. 2002, 46: 1295-1304; Pfister et al. Antimicrob. Agents Chemother. 2003, 47: 1496-1502) to result in vectors carrying a partial rRNA gene fragment of approximately 1.0 kb with the mutational alteration introduced. In the case of plasmids carrying the complete rRNA operon the mutagenized rRNA gene fragment obtained by PCR was cloned into vectors pMV361 rRNA or pMV261 rRNA using appropriate restriction sites (Prammananan et al. Antimicrob. Agents Chemother. 1999, 43: 447-453). Vectors pMV361 rRNA and pMV261 rRNA carried a complete copy of the rRNA operon from M. smegmatis (Sander et al. Mol. Microbiol. 1997, 26: 469-480). Introduction of mutations into the plasmid encoded rRNA was confirmed by sequencing.
(§3) The single rRNA allelic derivative of M. smegmatis, i.e. M. smegmatis rrn, was used for transformation of the plasmids. The strain was made electro-competent and transformed according to standard techniques and as described previously (Sander et al. Mol. Microbiol. 1997, 26: 469-484). Following primary selection, the plasmid-encoded mutational rRNA gene alteration was transferred into the single chromosomal rRNA operon by means of RecA-mediated homologous recombination (Prammananan at al. Antimicrob. Agents Chemother. 1999, 43: 447-453). Introduction of the mutational rRNA gene alteration into the single functional chromosomal rRNA operon by gene conversion was confirmed by sequence determination.
(§4) Ribosomal drug susceptibility was studied by determining the minimal inhibitory concentrations, as described in detail in Pfister et al. 2003 and 2005 (see above).
(§5) The recombinants carrying the respective mutational alterations in the functional rRNA operon were colony-purified and subjected to determinations of minimal inhibitory concentrations (MIC) to determine ribosomal drug susceptibility. Cultures from single colonies were grown in LB medium supplemented with 0.05% Tween 80 and used for MIC tests in a microtiter plate format. Starting cultures contained 200 μl of bacterial cells at an optical density of 0.025 at 600 nm, and the respective drug was added in twofold series of dilution.
(§6) Key nucleotides which distinguish the prokaryotic from the eukaryotic decoding site are 16S rRNA positions 1408 (bacterial ribosome: A, eukaryotic cytosolic ribosomes: G) and 1491 (bacterial ribosomes: G, eukaryotic cytosolic ribosomes: A, eukaryotic mitochondrial ribosome: C).

[2] = tested on: M. smegmatis ΔrrnB 1408G (16S rRNA position 1408 G, eukaryotic cytosolic ribosomes); test: MIC, recombinant M. smegmatis with mutant ribosomes 1408G; conditions: M. smegmatis ΔrrnB 1408G mutant ribosomes; 72 h at 37° C.
Description: as §1, §2, §3, §4, §5, §6

[3] = tested on: M. smegmatis ΔrrnB 1491A (16S rRNA position 1491 A, eukaryotic cytosolic ribosomes); test: MIC, recombinant M. smegmatis with mutant ribosomes 1491A; conditions: M. smegmatis ΔrrnB 1491A mutant ribosomes; 72 h at 37° C.
Description: as §1, §2, §3, §4, §5, §6

[4] = tested on: M. smegmatis ΔrrnB (bacterial ribosomes); test: MIC, recombinant M. smegmatis with bacterial (wild-type) ribosomes; conditions: 72 h at 37° C.
Description: as §1, §2, §3, §4, §5, §6

With `COc1ccc([C@@H]2OC[C@H]3O[C@H](O[C@H]4[C@H](O[C@@H]5O[C@H](CO)[C@@H](O[C@H]6O[C@@H](CN)[C@@H](O)[C@H](O)[C@H]6N)[C@H]5O)[C@@H](O)[C@H](N)C[C@@H]4N)[C@H](N)[C@@H](O)[C@@H]3O2)cc1` [Compound 5.2, 4′,6′-O-p-Methoxybenzylideneparomomycin] as the molecule, how does the “minimal inhibitory concentrations ΔrrnB 1491C” value [1] read?
The value was >512 µg/mL.

And the “minimal inhibitory concentrations ΔrrnB 1408G” value [2]?
Its value is >512 µg/mL.

What about the “minimal inhibitory concentrations ΔrrnB 1491A” value [3] of the same molecule?
The value was >512 µg/mL.

What about the “minimal inhibitory concentrations ΔrrnB” value [4] of the same molecule?
The value was 4 µg/mL.

Which “minimal inhibitory concentrations ΔrrnB 1491C” value [1] does the source give for `CC(=O)O.CC(=O)O.CC(=O)O.CC(=O)O.COc1cccc(C2OCC3OC(OC4C(N)CC(N)C(O)C4OC4OC(CO)C(OC5OC(CN)C(O)C(O)C5N)C4O)C(N)C(O)C3O2)c1` (stereo not shown) [Compound 5.3, 4′,6′-O-m-Methoxybenzylideneparomomycin tetraacetate] here?
Its value is >512 µg/mL.

What about the “minimal inhibitory concentrations ΔrrnB 1408G” value [2] of the same molecule?
Its value is 256 to 512 µg/mL.

What about the “minimal inhibitory concentrations ΔrrnB 1491A” value [3] of the same molecule?
Its value is 512 µg/mL.

What about the “minimal inhibitory concentrations ΔrrnB” value [4] of the same molecule?
Its value is 4 to 8 µg/mL.

With `COc1ccccc1[C@@H]1OC[C@H]2O[C@H](O[C@H]3[C@H](O[C@@H]4O[C@H](CO)[C@@H](O[C@H]5O[C@@H](CN)[C@@H](O)[C@H](O)[C@H]5N)[C@H]4O)[C@@H](O)[C@H](N)C[C@@H]3N)[C@H](N)[C@@H](O)[C@@H]2O1` [Compound 5.4, 4,6′-O-o-Methoxybenzylideneparomomycin] as the molecule, how does the “minimal inhibitory concentrations ΔrrnB 1491C” value [1] read?
Its value is >512 µg/mL.

And the “minimal inhibitory concentrations ΔrrnB 1408G” value [2]?
The value was >512 µg/mL.

What about the “minimal inhibitory concentrations ΔrrnB 1491A” value [3] of the same molecule?
The value was >512 µg/mL.

What about the “minimal inhibitory concentrations ΔrrnB” value [4] of the same molecule?
Its value is 8 to 16 µg/mL.

Which “minimal inhibitory concentrations ΔrrnB 1491C” value [1] does the source give for `COc1ccc(OC)c(C2OC[C@H]3O[C@H](O[C@H]4[C@H](O[C@@H]5O[C@H](CO)[C@@H](O[C@H]6O[C@@H](CN)[C@@H](O)[C@H](O)[C@H]6N)[C@H]5O)[C@@H](O)[C@H](N)C[C@@H]4N)[C@H](N)[C@@H](O)[C@@H]3O2)c1` (stereo partly shown) [Compound 5.5, 4′,6′-O-2,5-Dimethoxybenzylideneparomomycin] here?
The value was >512 µg/mL.

And the “minimal inhibitory concentrations ΔrrnB 1408G” value [2]?
The value was “≧512 μg/ml”.

And the “minimal inhibitory concentrations ΔrrnB 1491A” value [3]?
Its value is >512 µg/mL.

What about the “minimal inhibitory concentrations ΔrrnB” value [4] of the same molecule?
Its value is 4 to 8 µg/mL.

With `NC[C@@H]1O[C@H](O[C@H]2[C@@H](O)[C@H](O[C@@H]3[C@@H](O)[C@H](N)C[C@H](N)[C@H]3O[C@H]3O[C@@H]4CO[C@@H](c5ccc([N+](=O)[O-])cc5)O[C@H]4[C@H](O)[C@H]3N)O[C@@H]2CO)[C@H](N)[C@@H](O)[C@@H]1O` [Compound 5.6, 4′,6′-O-p-Nitrobenzylideneparomomycin] as the molecule, how does the “minimal inhibitory concentrations ΔrrnB 1491C” value [1] read?
The value was >512 µg/mL.

And the “minimal inhibitory concentrations ΔrrnB 1408G” value [2]?
The value was 512 µg/mL.

What about the “minimal inhibitory concentrations ΔrrnB 1491A” value [3] of the same molecule?
The value was >512 µg/mL.

What about the “minimal inhibitory concentrations ΔrrnB” value [4] of the same molecule?
Its value is 4 µg/mL.

Which results are given for `CC(=O)O.CC(=O)O.CC(=O)O.NC[C@@H]1O[C@H](O[C@H]2[C@@H](O)[C@H](O[C@@H]3[C@@H](O)[C@H](N)C[C@H](N)[C@H]3O[C@H]3O[C@@H]4COC(c5cccc([N+](=O)[O-])c5)O[C@H]4[C@H](O)[C@H]3N)O[C@@H]2CO)[C@H](N)[C@@H](O)[C@@H]1O` (stereo partly shown) [Compound 5.7, 4,6′-O-m-Nitrobenzylideneparomomycin triacetate]?
minimal inhibitory concentrations ΔrrnB 1491C [1]: >512 µg/mL; minimal inhibitory concentrations ΔrrnB 1408G [2]: 256 to 512 µg/mL; minimal inhibitory concentrations ΔrrnB 1491A [3]: 256 µg/mL; minimal inhibitory concentrations ΔrrnB [4]: 2 to 4 µg/mL

Which results are given for `NC[C@@H]1O[C@H](O[C@H]2[C@@H](O)[C@H](O[C@@H]3[C@@H](O)[C@H](N)C[C@H](N)[C@H]3O[C@H]3O[C@@H]4CO[C@@H](c5cc(Cl)cc(Cl)c5)O[C@H]4[C@H](O)[C@H]3N)O[C@@H]2CO)[C@H](N)[C@@H](O)[C@@H]1O` [Compound 5.9, 4,6′-O-3,5-Dichlorobenzylideneparomomycin]?
minimal inhibitory concentrations ΔrrnB 1491C [1]: 128 µg/mL; minimal inhibitory concentrations ΔrrnB 1408G [2]: 128 to 256 µg/mL; minimal inhibitory concentrations ΔrrnB 1491A [3]: 128 to 256 µg/mL; minimal inhibitory concentrations ΔrrnB [4]: 4 µg/mL

How did the “minimal inhibitory concentrations ΔrrnB 1491C” value [1] turn out when `N#Cc1ccc([C@@H]2OC[C@H]3O[C@H](O[C@H]4[C@H](O[C@@H]5O[C@H](CO)[C@@H](O[C@H]6O[C@@H](CN)[C@@H](O)[C@H](O)[C@H]6N)[C@H]5O)[C@@H](O)[C@H](N)C[C@@H]4N)[C@H](N)[C@@H](O)[C@@H]3O2)cc1` [Compound 5.10, 4,6′-O-p-Cyanobenzylideneparomomycin] was run?
Its value is >512 µg/mL.

What about the “minimal inhibitory concentrations ΔrrnB 1408G” value [2] of the same molecule?
The value was >512 µg/mL.

And the “minimal inhibitory concentrations ΔrrnB 1491A” value [3]?
Its value is >512 µg/mL.

And the “minimal inhibitory concentrations ΔrrnB” value [4]?
Its value is 16 to 32 µg/mL.

For `NC[C@@H]1O[C@H](O[C@H]2[C@@H](O)[C@H](O[C@@H]3[C@@H](O)[C@H](N)C[C@H](N)[C@H]3O[C@H]3O[C@@H]4CO[C@@H](c5ccc(-c6ccccc6)cc5)O[C@H]4[C@H](O)[C@H]3N)O[C@@H]2CO)[C@H](N)[C@@H](O)[C@@H]1O` [Compound 5.11, 4′,6′-O-p-Phenylbenzylideneparomomycin], which “minimal inhibitory concentrations ΔrrnB 1491C” value [1] is on record?
The value was 64 µg/mL.

What about the “minimal inhibitory concentrations ΔrrnB 1408G” value [2] of the same molecule?
The value was 128 µg/mL.

What about the “minimal inhibitory concentrations ΔrrnB 1491A” value [3] of the same molecule?
Its value is 64 to 128 µg/mL.

What about the “minimal inhibitory concentrations ΔrrnB” value [4] of the same molecule?
Its value is 64 µg/mL.

How did the “minimal inhibitory concentrations ΔrrnB 1491C” value [1] turn out when `NC[C@@H]1O[C@H](O[C@H]2[C@@H](O)[C@H](O[C@@H]3[C@@H](O)[C@H](N)C[C@H](N)[C@H]3O[C@H]3O[C@@H]4CO[C@@H](c5ccc(F)cc5)O[C@H]4[C@H](O)[C@H]3N)O[C@@H]2CO)[C@H](N)[C@@H](O)[C@@H]1O` [Compound 5.12, 4,6′-O-p-Fluorobenzylideneparomomycin] was run?
Its value is >512 µg/mL.

And the “minimal inhibitory concentrations ΔrrnB 1408G” value [2]?
Its value is >512 µg/mL.

What about the “minimal inhibitory concentrations ΔrrnB 1491A” value [3] of the same molecule?
Its value is >512 µg/mL.

And the “minimal inhibitory concentrations ΔrrnB” value [4]?
The value was 2 to 4 µg/mL.

How did the “minimal inhibitory concentrations ΔrrnB 1491C” value [1] turn out when `COc1cc(OC)cc([C@@H]2OC[C@H]3O[C@H](O[C@H]4[C@H](O[C@@H]5O[C@H](CO)[C@@H](O[C@H]6O[C@@H](CN)[C@@H](O)[C@H](O)[C@H]6N)[C@H]5O)[C@@H](O)[C@H](N)C[C@@H]4N)[C@H](N)[C@@H](O)[C@@H]3O2)c1` [Compound 5.13, 4′,6′-O-3,5-Dimethoxybenzylideneparomomycin] was run?
Its value is >512 µg/mL.

What about the “minimal inhibitory concentrations ΔrrnB 1408G” value [2] of the same molecule?
Its value is >512 µg/mL.

What about the “minimal inhibitory concentrations ΔrrnB 1491A” value [3] of the same molecule?
The value was >512 µg/mL.

And the “minimal inhibitory concentrations ΔrrnB” value [4]?
The value was 32 µg/mL.

For `COc1cc([C@@H]2OC[C@H]3O[C@H](O[C@H]4[C@H](O[C@@H]5O[C@H](CO)[C@@H](O[C@H]6O[C@@H](CN)[C@@H](O)[C@H](O)[C@H]6N)[C@H]5O)[C@@H](O)[C@H](N)C[C@@H]4N)[C@H](N)[C@@H](O)[C@@H]3O2)cc(OC)c1OC` [Compound 5.14, 4′,6′-O-3,4,5-Trimethoxybenzylideneparomomycin], which “minimal inhibitory concentrations ΔrrnB 1491C” value [1] is on record?
The value was >512 µg/mL.

And the “minimal inhibitory concentrations ΔrrnB 1408G” value [2]?
Its value is >512 µg/mL.

And the “minimal inhibitory concentrations ΔrrnB 1491A” value [3]?
Its value is >512 µg/mL.

What about the “minimal inhibitory concentrations ΔrrnB” value [4] of the same molecule?
The value was 32 to 64 µg/mL.

Which results are given for `NC[C@@H]1O[C@H](O[C@H]2[C@@H](O)[C@H](O[C@@H]3[C@@H](O)[C@H](N)C[C@H](N)[C@H]3O[C@H]3O[C@@H]4CO[C@@H](c5cccc(Cl)c5)O[C@H]4[C@H](O)[C@H]3N)O[C@@H]2CO)[C@H](N)[C@@H](O)[C@@H]1O` [Compound 5.15, 4′,6′-O-m-chlorobenzylideneparomomycin]?
minimal inhibitory concentrations ΔrrnB 1491C [1]: 512 µg/mL; minimal inhibitory concentrations ΔrrnB 1408G [2]: 256 to 512 µg/mL; minimal inhibitory concentrations ΔrrnB 1491A [3]: 512 µg/mL; minimal inhibitory concentrations ΔrrnB [4]: 2 to 4 µg/mL
